Experimental data taken from ChEMBL document CHEMBL5338804 (J Med Chem, 2023).
In brackets after ≈: the same amount, converted by molar mass.

What was measured:
[1] = target: Casein kinase I isoform alpha (Homo sapiens, UniProt P48729); experiment: Inhibition of CK1A1 (unknown origin)
[2] = target: Interleukin-1 receptor-associated kinase 4 (Homo sapiens, UniProt Q9NWZ3); experiment: Inhibition of IRAK4 (unknown origin)
[3] = Cmax in C57BL/6 mouse at 10 mg/kg, po by LC-MS/MS analysis; format: ADME, organism-based; design: dose 10 mg/kg, route po; conditions: in vivo
[4] = target: Tyrosine-protein kinase BTK (Homo sapiens, UniProt Q06187); experiment: Inhibition of BTK (unknown origin)
[5] = target: Tyrosine-protein kinase SYK (Homo sapiens, UniProt P43405); experiment: Inhibition of SYK (unknown origin)
[6] = target: Platelet-derived growth factor receptor beta (Homo sapiens, UniProt P09619); experiment: Inhibition of PDGFR-beta (unknown origin)
[7] = Thermodynamic aqueous solubility of the compound at pH 1 incubated for 18 to 24 hrs by HPLC-UV analysis; format: physicochemical; conditions: aqueous medium, time 18-24 hrs, read-out: Therm_solubility
[8] = target: Mitogen-activated protein kinase 14 (Homo sapiens, UniProt Q16539); experiment: Inhibition of MAPK p38-alpha (unknown origin)
[9] = target: AP2-associated protein kinase 1 (Homo sapiens, UniProt Q2M2I8); experiment: Inhibition of AAK1 (unknown origin)
[10] = target: Non-receptor tyrosine-protein kinase TYK2 (Homo sapiens, UniProt P29597); experiment: Inhibition of TYK2 (unknown origin)
Sequence of Non-receptor tyrosine-protein kinase TYK2 (P29597 whole entry, the tested form may be a part): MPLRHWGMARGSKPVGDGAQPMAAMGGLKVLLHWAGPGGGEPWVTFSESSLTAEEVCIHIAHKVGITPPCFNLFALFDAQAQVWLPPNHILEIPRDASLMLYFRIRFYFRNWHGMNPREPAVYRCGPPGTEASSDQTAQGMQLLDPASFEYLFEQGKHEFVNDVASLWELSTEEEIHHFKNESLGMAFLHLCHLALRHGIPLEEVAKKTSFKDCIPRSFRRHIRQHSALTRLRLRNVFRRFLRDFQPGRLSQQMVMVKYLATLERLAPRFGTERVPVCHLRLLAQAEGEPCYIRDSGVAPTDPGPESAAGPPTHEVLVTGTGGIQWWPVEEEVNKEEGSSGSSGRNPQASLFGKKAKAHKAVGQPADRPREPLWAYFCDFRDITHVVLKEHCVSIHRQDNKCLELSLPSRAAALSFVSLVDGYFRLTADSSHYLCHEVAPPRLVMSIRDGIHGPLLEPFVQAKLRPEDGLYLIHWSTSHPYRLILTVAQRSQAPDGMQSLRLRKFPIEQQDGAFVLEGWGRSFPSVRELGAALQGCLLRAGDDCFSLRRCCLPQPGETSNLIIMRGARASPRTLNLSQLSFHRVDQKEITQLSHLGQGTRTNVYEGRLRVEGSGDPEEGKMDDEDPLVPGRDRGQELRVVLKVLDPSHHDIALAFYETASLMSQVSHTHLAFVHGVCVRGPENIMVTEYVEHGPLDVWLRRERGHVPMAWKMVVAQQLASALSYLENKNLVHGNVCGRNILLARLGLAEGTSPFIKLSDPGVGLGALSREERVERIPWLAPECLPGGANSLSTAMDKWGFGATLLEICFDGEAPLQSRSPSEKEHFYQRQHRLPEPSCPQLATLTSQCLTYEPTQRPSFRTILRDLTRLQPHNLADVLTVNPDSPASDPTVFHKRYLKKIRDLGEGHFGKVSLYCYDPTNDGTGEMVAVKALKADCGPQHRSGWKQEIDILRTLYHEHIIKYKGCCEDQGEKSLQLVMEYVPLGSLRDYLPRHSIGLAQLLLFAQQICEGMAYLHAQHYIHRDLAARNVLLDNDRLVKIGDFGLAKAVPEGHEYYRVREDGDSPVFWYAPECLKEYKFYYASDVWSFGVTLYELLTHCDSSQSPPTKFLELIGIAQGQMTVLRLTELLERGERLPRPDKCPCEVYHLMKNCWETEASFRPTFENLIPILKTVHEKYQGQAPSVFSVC

[11] = target: Glycogen synthase kinase-3 beta (Homo sapiens, UniProt P49841, H355L); experiment: Displacement of FL-KRREILSRRP[ps]ERYR-NH2 from human recombinant N-terminal His6-tagged GSK-3-beta (14 to 306 residues) H355L mutant expressed in baculovirus-infected Sf21 cells incubated for 20 hrs by fluorescence based analysis
[12] = target: Interleukin-1 receptor-associated kinase 1 (Homo sapiens, UniProt P51617); experiment: Inhibition of IRAK1 (unknown origin)
[13] = target: Tyrosine-protein kinase Lck (Homo sapiens, UniProt P06239); experiment: Inhibition of LCK (unknown origin)
Sequence of Tyrosine-protein kinase Lck (P06239 whole entry): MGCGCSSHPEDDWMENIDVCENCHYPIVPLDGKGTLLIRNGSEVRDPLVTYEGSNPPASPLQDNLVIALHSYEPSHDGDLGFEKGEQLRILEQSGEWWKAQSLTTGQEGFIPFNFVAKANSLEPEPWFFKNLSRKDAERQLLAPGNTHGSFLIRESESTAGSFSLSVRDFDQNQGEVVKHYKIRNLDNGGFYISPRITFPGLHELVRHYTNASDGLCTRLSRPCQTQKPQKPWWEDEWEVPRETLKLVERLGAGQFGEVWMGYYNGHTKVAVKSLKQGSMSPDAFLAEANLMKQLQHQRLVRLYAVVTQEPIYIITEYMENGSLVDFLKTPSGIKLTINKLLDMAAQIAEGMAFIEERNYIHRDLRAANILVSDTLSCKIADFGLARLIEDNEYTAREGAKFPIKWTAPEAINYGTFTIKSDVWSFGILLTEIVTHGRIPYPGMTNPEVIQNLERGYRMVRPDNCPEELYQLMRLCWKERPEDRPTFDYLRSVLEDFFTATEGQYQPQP

[14] = Ratio of unbound drug concentration in mouse brain to plasma at 10 uM incubated for 5 hrs by equilibrium dialysis method; format: ADME, cell-free; conditions: read-out: K(p,uu,brain)
[15] = Permeability of the compound at 100 uM incubated for 4 hrs at pH 7.4 by PAMPA assay; format: ADME; conditions: read-out: permeability
[16] = Protein binding in mouse brain assessed as unbound fraction at 1 uM incubated for 4 hrs by LC-MS analysis; format: ADME, tissue-based
[17] = Metabolic stability in mouse liver microsomes assessed as parent compound remaining at 0.5 uM measured after 10 mins in presence of NADPH by LC-MS/MS analysis; format: ADME, Microsome; conditions: read-out: Stability
[18] = Protein binding in rat plasma assessed as unbound fraction at 10 uM incubated for 5 hrs by equilibrium dialysis method; format: ADME, cell-free
Aurora kinase A = Aurora kinase A (Mus musculus, UniProt P97477); experiment: Inhibition of mouse Aurora kinase A
[19] = Plasma concentration in LaFerla 3x transgenic Alzheimer's disease C57BL/6 mouse model at 10 mg/kg, po measured after 5 hrs; format: ADME, organism-based
[20] = target: Casein kinase II subunit alpha' (Homo sapiens, UniProt P19784); experiment: Inhibition of CK2A2 (unknown origin)
Sequence of Casein kinase II subunit alpha' (P19784 whole entry): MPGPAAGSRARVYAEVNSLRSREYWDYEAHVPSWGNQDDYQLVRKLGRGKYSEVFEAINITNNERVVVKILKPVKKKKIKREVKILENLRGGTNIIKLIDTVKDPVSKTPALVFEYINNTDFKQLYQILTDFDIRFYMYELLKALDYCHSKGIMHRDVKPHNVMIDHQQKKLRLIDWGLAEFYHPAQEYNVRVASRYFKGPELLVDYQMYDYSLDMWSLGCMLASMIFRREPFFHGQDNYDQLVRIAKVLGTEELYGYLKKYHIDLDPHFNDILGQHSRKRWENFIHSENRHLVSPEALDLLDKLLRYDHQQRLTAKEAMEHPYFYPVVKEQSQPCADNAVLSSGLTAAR

[21] = Metabolic stability in human liver microsomes assessed as parent compound remaining at 0.5 uM measured after 10 mins in presence of NADPH by LC-MS/MS analysis; format: ADME, Microsome; conditions: read-out: Stability
[22] = Oral bioavailability in C57BL/6 mouse at 10 mg/kg by LC-MS/MS analysis; format: ADME, organism-based; conditions: in vivo
[23] = Ratio of drug concentration in brain to plasma in LaFerla 3x transgenic Alzheimer's disease C57BL/6 mouse model at 10 mg/kg, po measured after 5 hrs; format: ADME, organism-based; conditions: read-out: BPR
[24] = target: Cyclin-dependent kinase 2 (Homo sapiens, UniProt P24941); experiment: Inhibition of CDK2 (unknown origin)
[25] = Clearance in C57BL/6 mouse at 2 mg/kg, iv by LC-MS/MS analysis; format: ADME, organism-based; conditions: in vivo
[26] = target: Casein kinase II subunit alpha (Homo sapiens, UniProt P68400); experiment: Inhibition of CK2A1 (unknown origin)
Sequence of Casein kinase II subunit alpha (P68400 whole entry): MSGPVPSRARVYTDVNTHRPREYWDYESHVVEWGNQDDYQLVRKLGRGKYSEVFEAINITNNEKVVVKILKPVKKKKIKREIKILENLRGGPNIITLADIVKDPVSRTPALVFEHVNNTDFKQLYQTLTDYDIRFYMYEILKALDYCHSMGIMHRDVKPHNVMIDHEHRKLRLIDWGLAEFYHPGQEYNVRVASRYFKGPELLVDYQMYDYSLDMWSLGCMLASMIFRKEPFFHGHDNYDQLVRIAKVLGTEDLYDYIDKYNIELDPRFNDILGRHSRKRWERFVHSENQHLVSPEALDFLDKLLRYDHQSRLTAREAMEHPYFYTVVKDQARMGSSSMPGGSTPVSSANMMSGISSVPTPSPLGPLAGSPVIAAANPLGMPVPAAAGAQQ

[27] = Volume of distribution at steady state in C57BL/6 mouse at 2 mg/kg, iv by LC-MS/MS analysis; format: ADME, organism-based; conditions: in vivo, read-out: Vdss
[28] = target: Glycogen synthase kinase-3 (Homo sapiens, UniProt P49840+P49841); experiment: Inhibition of GSK-3 in human U2OS cells transfected with beta-catenin GFP and 4R1N tau plasmid assessed as inhibition of Tau phosphorylation at Ser396 residues by high-content imaging assay; format: cell-based
[29] = target: Serine/threonine-protein kinase pim-1 (Homo sapiens, UniProt P11309); experiment: Inhibition of PIM1 (unknown origin)
[30] = Protein binding in mouse plasma assessed as unbound fraction at 10 uM incubated for 5 hrs by equilibrium dialysis method; format: ADME, cell-free
[31] = target: Cyclin-dependent kinase 5 (Homo sapiens, UniProt Q00535); experiment: Inhibition of CDK5 (unknown origin)
[32] = target: Tyrosine-protein kinase JAK2 (Homo sapiens, UniProt O60674); experiment: Inhibition of JAK2 (unknown origin)
Aurora kinase B = Aurora kinase B (Homo sapiens, UniProt Q96GD4); experiment: Inhibition of Aurora kinase B (unknown origin)
[33] = Thermodynamic aqueous solubility of the compound at pH 7.4 incubated for 18 to 24 hrs by HPLC-UV analysis; format: physicochemical; conditions: aqueous medium, time 18-24 hrs, read-out: Therm_solubility
[34] = Protein binding in human plasma assessed as unbound fraction at 10 uM incubated for 5 hrs by equilibrium dialysis method; format: ADME, cell-free
[35] = AUC (total) in C57BL/6 mouse at 10 mg/kg, po by LC-MS/MS analysis; format: ADME, organism-based; design: dose 10 mg/kg, route po; conditions: in vivo
[36] = Permeability of the compound from apical to basolateral side in human Caco-2 cells at 3 uM incubated for 2 hrs by LC-MS/MS analysis; format: ADME, cell-based; conditions: read-out: permeability
[37] = Drug uptake in brain of LaFerla 3x transgenic Alzheimer's disease C57BL/6 mouse model at 10 mg/kg, po measured after 5 hrs; format: ADME, organism-based; conditions: read-out: Drug uptake
[38] = Permeability of the compound at 100 uM incubated for 4 hrs at pH 5.5 by PAMPA assay; format: ADME; conditions: read-out: permeability
[39] = MRT in C57BL/6 mouse at 2 mg/kg, iv by LC-MS/MS analysis; format: ADME, organism-based; conditions: in vivo
[40] = Permeability of the compound from basolateral to apical side in human Caco-2 cells at 3 uM incubated for 2 hrs by LC-MS/MS analysis; format: ADME, cell-based; conditions: read-out: permeability
[41] = target: Glycogen synthase kinase-3 alpha (Homo sapiens, UniProt P49840); experiment: Displacement of FL-KRREILSRRP[ps]ERYR-NH2 from human recombinant full length GST-tagged GSK-3-alpha expressed in insect cells incubated for 20 hrs by fluorescence based analysis; design: species or system Insect cell
[42] = target: MAP kinase-activated protein kinase 2 (Homo sapiens, UniProt P49137); experiment: Inhibition of MK2 (unknown origin)
[43] = target: Protein kinase C theta type (Homo sapiens, UniProt Q04759); experiment: Inhibition of PKC theta (unknown origin)
[44] = Half life in C57BL/6 mouse at 2 mg/kg, iv by LC-MS/MS analysis; format: ADME, organism-based; conditions: in vivo
[45] = target: Mast/stem cell growth factor receptor Kit (Homo sapiens, UniProt P10721); experiment: Inhibition of c-Kit (unknown origin)
Sequence of Mast/stem cell growth factor receptor Kit (P10721 whole entry): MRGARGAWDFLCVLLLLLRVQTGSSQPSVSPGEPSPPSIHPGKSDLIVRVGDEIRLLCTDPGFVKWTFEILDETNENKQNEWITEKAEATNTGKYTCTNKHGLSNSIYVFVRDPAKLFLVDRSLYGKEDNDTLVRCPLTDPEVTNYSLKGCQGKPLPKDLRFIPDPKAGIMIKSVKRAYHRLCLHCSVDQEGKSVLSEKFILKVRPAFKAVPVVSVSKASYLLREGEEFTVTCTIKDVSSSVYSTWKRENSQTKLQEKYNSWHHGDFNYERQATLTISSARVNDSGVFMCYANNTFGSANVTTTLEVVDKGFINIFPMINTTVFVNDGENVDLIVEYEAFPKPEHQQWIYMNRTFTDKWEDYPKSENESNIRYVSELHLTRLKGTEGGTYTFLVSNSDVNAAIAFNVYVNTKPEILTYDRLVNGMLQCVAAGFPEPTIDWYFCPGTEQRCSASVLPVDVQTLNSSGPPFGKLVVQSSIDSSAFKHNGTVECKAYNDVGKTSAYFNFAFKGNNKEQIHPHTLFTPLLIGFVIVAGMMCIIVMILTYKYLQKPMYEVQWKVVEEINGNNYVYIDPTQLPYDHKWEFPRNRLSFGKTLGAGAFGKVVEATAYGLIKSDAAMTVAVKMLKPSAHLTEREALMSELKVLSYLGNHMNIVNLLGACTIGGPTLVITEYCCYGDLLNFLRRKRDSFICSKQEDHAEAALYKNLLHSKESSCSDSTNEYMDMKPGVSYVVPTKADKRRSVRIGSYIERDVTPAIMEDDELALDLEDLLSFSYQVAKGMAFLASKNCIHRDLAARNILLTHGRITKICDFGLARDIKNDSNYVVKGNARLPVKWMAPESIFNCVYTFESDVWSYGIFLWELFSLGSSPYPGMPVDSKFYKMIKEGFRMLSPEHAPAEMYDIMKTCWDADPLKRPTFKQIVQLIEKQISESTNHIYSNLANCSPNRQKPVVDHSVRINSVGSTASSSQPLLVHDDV

[46] = target: Tyrosine-protein kinase JAK1 (Homo sapiens, UniProt P23458); experiment: Inhibition of JAK1 (unknown origin)
[47] = target: Ribosomal protein S6 kinase alpha-1 (Homo sapiens, UniProt Q15418); experiment: Inhibition of RSK1 (unknown origin)
Sequence of Ribosomal protein S6 kinase alpha-1 (Q15418 whole entry): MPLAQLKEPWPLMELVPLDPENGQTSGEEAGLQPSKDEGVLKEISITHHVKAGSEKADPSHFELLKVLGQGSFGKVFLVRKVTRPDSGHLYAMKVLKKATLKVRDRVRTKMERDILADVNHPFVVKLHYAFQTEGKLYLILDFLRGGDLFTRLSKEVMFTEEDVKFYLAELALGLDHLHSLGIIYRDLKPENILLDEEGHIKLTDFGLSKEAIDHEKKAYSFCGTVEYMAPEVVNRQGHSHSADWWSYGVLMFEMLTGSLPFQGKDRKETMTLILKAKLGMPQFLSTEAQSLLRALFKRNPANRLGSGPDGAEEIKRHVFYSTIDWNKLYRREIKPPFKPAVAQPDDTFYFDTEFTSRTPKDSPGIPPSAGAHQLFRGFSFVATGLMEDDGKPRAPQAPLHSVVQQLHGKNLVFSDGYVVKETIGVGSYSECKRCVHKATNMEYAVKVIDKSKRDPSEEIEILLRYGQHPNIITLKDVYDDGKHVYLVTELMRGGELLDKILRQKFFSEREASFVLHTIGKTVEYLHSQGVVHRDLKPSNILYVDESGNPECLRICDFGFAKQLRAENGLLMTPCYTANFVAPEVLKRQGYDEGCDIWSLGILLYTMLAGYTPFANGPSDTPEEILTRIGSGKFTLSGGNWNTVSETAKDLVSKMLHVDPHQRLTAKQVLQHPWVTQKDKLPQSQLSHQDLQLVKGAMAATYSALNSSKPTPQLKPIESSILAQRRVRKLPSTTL

[48] = Metabolic stability in rat liver microsomes assessed as parent compound remaining at 0.5 uM measured after 10 mins in presence of NADPH by LC-MS/MS analysis; format: ADME, Microsome; conditions: read-out: Stability

Sequence of Interleukin-1 receptor-associated kinase 4 (Q9NWZ3 whole entry): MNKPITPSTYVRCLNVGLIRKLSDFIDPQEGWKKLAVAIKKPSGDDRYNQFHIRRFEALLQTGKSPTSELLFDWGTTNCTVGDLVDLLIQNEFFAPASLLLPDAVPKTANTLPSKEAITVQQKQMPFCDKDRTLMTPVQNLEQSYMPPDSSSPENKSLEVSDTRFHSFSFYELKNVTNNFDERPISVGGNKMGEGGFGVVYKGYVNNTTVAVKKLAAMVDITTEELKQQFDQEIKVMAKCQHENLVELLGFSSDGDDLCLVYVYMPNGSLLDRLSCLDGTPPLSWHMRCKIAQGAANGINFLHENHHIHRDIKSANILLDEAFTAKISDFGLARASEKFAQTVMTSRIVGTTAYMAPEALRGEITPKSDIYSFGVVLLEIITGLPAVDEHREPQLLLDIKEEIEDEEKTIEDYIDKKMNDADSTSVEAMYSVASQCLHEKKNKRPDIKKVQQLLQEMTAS
Sequence of Casein kinase I isoform alpha (P48729 whole entry, canonical isoform): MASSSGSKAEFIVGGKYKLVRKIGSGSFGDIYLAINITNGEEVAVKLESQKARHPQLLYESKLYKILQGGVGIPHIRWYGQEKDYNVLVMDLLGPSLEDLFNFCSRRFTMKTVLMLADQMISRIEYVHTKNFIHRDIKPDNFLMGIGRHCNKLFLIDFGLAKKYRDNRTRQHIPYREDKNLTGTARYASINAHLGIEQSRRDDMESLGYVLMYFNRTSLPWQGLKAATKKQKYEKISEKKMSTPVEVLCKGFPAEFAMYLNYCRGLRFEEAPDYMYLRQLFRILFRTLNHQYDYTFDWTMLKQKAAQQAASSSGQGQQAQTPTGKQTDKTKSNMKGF

O=C(Nc1cnccc1-c1ccc(F)cc1)c1ccnc(Nc2ccc(F)cc2)n1
IC50 [1]: > 2 µM
IC50 [2]: > 23 µM
Cmax [3]: 1500 nM
IC50 [4]: > 50 µM
IC50 [5]: 16 µM
IC50 [6]: > 50 µM
solubility thermodynamic [7]: 31 µg/mL (≈ 76.8 µM)
IC50 [8]: > 50 µM
IC50 [9]: > 2 µM
IC50 [10]: 17 µM
IC50 [11]: 0.00056 µM
IC50 [12]: > 2 µM
IC50 [13]: > 2 µM
Kp uu at 5 h, 10 µM [14]: 0.4
Papp at 4 h, 100 µM [15]: 59 ×10⁻⁶ cm/s
fraction unbound at 4 h, 1 µM [16]: 0.003
remaining at 10 min, 0.5 µM [17]: 54%
fraction unbound at 5 h, 10 µM [18]: 0.007
IC50 (Aurora kinase A): > 50 µM
concentration at 5 h [19]: 180 nM
IC50 [20]: > 2 µM
remaining at 10 min, 0.5 µM [21]: 67%
bioavailability [22]: 53%
Kp at 5 h [23]: 1
IC50 [24]: 0.47 µM
clearance [25]: 18.9 mL/min/kg
IC50 [26]: > 50 µM
Vd [27]: 2.6 L/kg
IC50 [28]: 0.034 µM
IC50 [29]: 1.4 µM
fraction unbound at 5 h, 10 µM [30]: 0.008
IC50 [31]: 0.68 µM
IC50 [32]: 14 µM
IC50 (Aurora kinase B): 11 µM
solubility thermodynamic [33]: 1 µg/mL (≈ 2.48 µM)
fraction unbound at 5 h, 10 µM [34]: 0.002
AUC [35]: 11.7 µM·h
Papp A→B at 2 h, 3 µM [36]: 11.8 ×10⁻⁶ cm/s
concentration at 5 h [37]: 180 nM
Papp at 4 h, 100 µM [38]: 62 ×10⁻⁶ cm/s
MRT [39]: 2.3 h
Papp B→A at 2 h, 3 µM [40]: 4.4 ×10⁻⁶ cm/s
IC50 [41]: 0.00045 µM
IC50 [42]: > 27 µM
IC50 [43]: 10.4 µM
half-life [44]: 2.8 h
IC50 [45]: > 2 µM
IC50 [46]: > 50 µM
IC50 [47]: > 50 µM
remaining at 10 min, 0.5 µM [48]: 10%
